Results as given in the supplement of paper PMC10307832.

compound: CC(C)CCN1c2nc(Nc3cc(F)c(O)c(F)c3)ncc2N(C)C(=O)C1C [BI-D1870] + Nc1nc2[nH]cc(CCc3ccc(C(=O)N[C@@H](CCC(=O)O)C(=O)O)cc3)c2c(=O)[nH]1 [Pemetrexed] (partner 0.2 µM); test: relative viability (nuclei count vs DMSO), 5 days (fraction); higher = more cells survive; conditions: first compound 0.04 µM
How it was run: (§1)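 Lung cancer cell lines, seeded in 1536-well plates, were treated the following day by pin tool with a single drug or with five library-drug doses (not always all listed) in √10 steps on top of a fixed anchor-drug dose. Cells were fixed and nuclei stained in one step after 5 days, and nuclei were counted. Relative viability is the nuclei count for treated wells divided by that for vehicle wells, reported as medians of duplicate plates.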

How did the relative viability turn out when LC-2-ad was run?
Its relative viability is 0.292.

With NCI-H1975 as the cell line, how does the relative viability read?
Its relative viability is 0.299.

For RERF-LC-KJ, which relative viability is on record?
The relative viability was 0.453.

NCI-H650 was tested. Which relative viability did it give?
The relative viability was 0.848.

Which relative viability does the source give for PC-3 [JPC-3] here?
Its relative viability is 1.1.

same assay, conditions: first compound 0.1265 µM

For LC-2-ad, which relative viability is on record?
The relative viability was 0.267.

With NCI-H1975 as the cell line, how does the relative viability read?
Its relative viability is 0.272.

With RERF-LC-KJ as the cell line, how does the relative viability read?
Its relative viability is 0.447.

For NCI-H650, which relative viability is on record?
The relative viability was 0.837.

Which relative viability does the source give for PC-3 [JPC-3] here?
The relative viability was 1.1.

same assay, conditions: first compound 0.4 µM

How did the relative viability turn out when LC-2-ad was run?
Its relative viability is 0.264.

NCI-H1975 was tested. Which relative viability did it give?
Its relative viability is 0.292.

RERF-LC-KJ was tested. Which relative viability did it give?
The relative viability was 0.476.

For NCI-H650, which relative viability is on record?
The relative viability was 0.96.

With PC-3 [JPC-3] as the cell line, how does the relative viability read?
Its relative viability is 1.01.

same assay, conditions: first compound 1.265 µM

With LC-2-ad as the cell line, how does the relative viability read?
Its relative viability is 0.275.

NCI-H1975 was tested. Which relative viability did it give?
The relative viability was 0.305.

RERF-LC-KJ was tested. Which relative viability did it give?
Its relative viability is 0.527.

NCI-H650 was tested. Which relative viability did it give?
The relative viability was 0.896.

For PC-3 [JPC-3], which relative viability is on record?
Its relative viability is 0.806.

same assay, conditions: first compound 4 µM

Which relative viability does the source give for LC-2-ad here?
Its relative viability is 0.253.

With NCI-H1975 as the cell line, how does the relative viability read?
The relative viability was 0.238.

RERF-LC-KJ was tested. Which relative viability did it give?
Its relative viability is 0.413.

How did the relative viability turn out when NCI-H650 was run?
Its relative viability is 0.802.

With PC-3 [JPC-3] as the cell line, how does the relative viability read?
The relative viability was 0.479.

compound: O=c1ncccn1[C@@H]1O[C@H](CO)[C@@H](O)[C@H]1O [Zebularine] + CC(C)C[C@H](NC(=O)[C@H](Cc1ccccc1)NC(=O)c1cnccn1)B(O)O [Bortezomib] (partner 0.002 µM); test: as above; conditions: first compound 1 µM
How it was run: as §1

With LC-2-ad as the cell line, how does the relative viability read?
The relative viability was 1.09.

NCI-H1975 was tested. Which relative viability did it give?
The relative viability was 0.403.

With RERF-LC-KJ as the cell line, how does the relative viability read?
Its relative viability is 1.11.

NCI-H650 was tested. Which relative viability did it give?
The relative viability was 0.956.

How did the relative viability turn out when PC-3 [JPC-3] was run?
Its relative viability is 0.912.

same assay, conditions: first compound 3.162 µM

How did the relative viability turn out when LC-2-ad was run?
The relative viability was 0.76.

NCI-H1975 was tested. Which relative viability did it give?
The relative viability was 0.338.

For RERF-LC-KJ, which relative viability is on record?
The relative viability was 0.996.

NCI-H650 was tested. Which relative viability did it give?
Its relative viability is 0.654.

With PC-3 [JPC-3] as the cell line, how does the relative viability read?
The relative viability was 0.772.

same assay, conditions: first compound 10 µM

For LC-2-ad, which relative viability is on record?
Its relative viability is 0.521.

Which relative viability does the source give for NCI-H1975 here?
Its relative viability is 0.288.

Which relative viability does the source give for RERF-LC-KJ here?
Its relative viability is 0.92.

NCI-H650 was tested. Which relative viability did it give?
Its relative viability is 0.557.

PC-3 [JPC-3] was tested. Which relative viability did it give?
Its relative viability is 0.464.

same assay, conditions: first compound 31.62 µM

For LC-2-ad, which relative viability is on record?
Its relative viability is 0.605.

For NCI-H1975, which relative viability is on record?
Its relative viability is 0.267.

Which relative viability does the source give for RERF-LC-KJ here?
Its relative viability is 1.36.

NCI-H650 was tested. Which relative viability did it give?
Its relative viability is 0.525.

How did the relative viability turn out when PC-3 [JPC-3] was run?
Its relative viability is 0.729.

same assay, conditions: first compound 100 µM

With LC-2-ad as the cell line, how does the relative viability read?
Its relative viability is 0.148.

Which relative viability does the source give for NCI-H1975 here?
The relative viability was 0.233.

How did the relative viability turn out when RERF-LC-KJ was run?
Its relative viability is 1.25.

Which relative viability does the source give for NCI-H650 here?
Its relative viability is 0.357.

How did the relative viability turn out when PC-3 [JPC-3] was run?
The relative viability was 0.591.

compound: O=c1ncccn1[C@@H]1O[C@H](CO)[C@@H](O)[C@H]1O [Zebularine] + Cc1nc(Nc2ncc(C(=O)Nc3c(C)cccc3Cl)s2)cc(N2CCN(CCO)CC2)n1 [Dasatinib] (partner 0.075 µM); test: as above; conditions: first compound 1 µM
How it was run: as §1

Which relative viability does the source give for LC-2-ad here?
The relative viability was 0.731.

NCI-H1975 was tested. Which relative viability did it give?
The relative viability was 0.328.

How did the relative viability turn out when RERF-LC-KJ was run?
The relative viability was 0.92.

With NCI-H650 as the cell line, how does the relative viability read?
Its relative viability is 0.462.

For PC-3 [JPC-3], which relative viability is on record?
The relative viability was 1.05.

same assay, conditions: first compound 3.162 µM

With LC-2-ad as the cell line, how does the relative viability read?
Its relative viability is 0.494.

With NCI-H1975 as the cell line, how does the relative viability read?
The relative viability was 0.408.

RERF-LC-KJ was tested. Which relative viability did it give?
The relative viability was 0.81.

Which relative viability does the source give for NCI-H650 here?
The relative viability was 0.486.

For PC-3 [JPC-3], which relative viability is on record?
The relative viability was 1.05.

same assay, conditions: first compound 10 µM

Which relative viability does the source give for LC-2-ad here?
Its relative viability is 0.226.

How did the relative viability turn out when NCI-H1975 was run?
Its relative viability is 0.253.

Which relative viability does the source give for RERF-LC-KJ here?
Its relative viability is 0.759.

NCI-H650 was tested. Which relative viability did it give?
Its relative viability is 0.403.

For PC-3 [JPC-3], which relative viability is on record?
Its relative viability is 0.61.

same assay, conditions: first compound 31.62 µM

With LC-2-ad as the cell line, how does the relative viability read?
Its relative viability is 0.491.

With NCI-H1975 as the cell line, how does the relative viability read?
Its relative viability is 0.247.

How did the relative viability turn out when RERF-LC-KJ was run?
Its relative viability is 0.999.

For NCI-H650, which relative viability is on record?
Its relative viability is 0.397.

PC-3 [JPC-3] was tested. Which relative viability did it give?
The relative viability was 0.979.

same assay, conditions: first compound 100 µM

With LC-2-ad as the cell line, how does the relative viability read?
Its relative viability is 0.34.

NCI-H1975 was tested. Which relative viability did it give?
Its relative viability is 0.173.

Which relative viability does the source give for RERF-LC-KJ here?
Its relative viability is 0.956.

With NCI-H650 as the cell line, how does the relative viability read?
The relative viability was 0.268.

How did the relative viability turn out when PC-3 [JPC-3] was run?
The relative viability was 0.79.

compound: O=c1ncccn1[C@@H]1O[C@H](CO)[C@@H](O)[C@H]1O [Zebularine] + O=C(CCCCCCC(=O)Nc1ccccc1)NO [Vorinostat] (partner 1 µM); test: as above; conditions: first compound 1 µM
How it was run: as §1

How did the relative viability turn out when LC-2-ad was run?
The relative viability was 0.759.

How did the relative viability turn out when NCI-H1975 was run?
The relative viability was 0.731.

How did the relative viability turn out when RERF-LC-KJ was run?
Its relative viability is 0.734.

With NCI-H650 as the cell line, how does the relative viability read?
Its relative viability is 0.398.

PC-3 [JPC-3] was tested. Which relative viability did it give?
Its relative viability is 1.01.

same assay, conditions: first compound 3.162 µM

Which relative viability does the source give for LC-2-ad here?
Its relative viability is 0.691.

NCI-H1975 was tested. Which relative viability did it give?
Its relative viability is 0.728.

RERF-LC-KJ was tested. Which relative viability did it give?
Its relative viability is 0.738.

For NCI-H650, which relative viability is on record?
Its relative viability is 0.376.

Which relative viability does the source give for PC-3 [JPC-3] here?
Its relative viability is 0.874.

same assay, conditions: first compound 10 µM

How did the relative viability turn out when LC-2-ad was run?
Its relative viability is 0.527.

With NCI-H1975 as the cell line, how does the relative viability read?
Its relative viability is 0.465.

With RERF-LC-KJ as the cell line, how does the relative viability read?
The relative viability was 0.633.

NCI-H650 was tested. Which relative viability did it give?
The relative viability was 0.343.

With PC-3 [JPC-3] as the cell line, how does the relative viability read?
Its relative viability is 0.785.

same assay, conditions: first compound 31.62 µM

With LC-2-ad as the cell line, how does the relative viability read?
The relative viability was 0.644.

Which relative viability does the source give for NCI-H1975 here?
Its relative viability is 0.556.

RERF-LC-KJ was tested. Which relative viability did it give?
Its relative viability is 0.762.

With NCI-H650 as the cell line, how does the relative viability read?
The relative viability was 0.297.

How did the relative viability turn out when PC-3 [JPC-3] was run?
The relative viability was 0.737.

same assay, conditions: first compound 100 µM

How did the relative viability turn out when LC-2-ad was run?
Its relative viability is 0.324.

NCI-H1975 was tested. Which relative viability did it give?
Its relative viability is 0.321.

With RERF-LC-KJ as the cell line, how does the relative viability read?
The relative viability was 0.683.

With NCI-H650 as the cell line, how does the relative viability read?
Its relative viability is 0.225.

Which relative viability does the source give for PC-3 [JPC-3] here?
Its relative viability is 0.658.
